Reference: article PMC7822176, “Pursuing the Complexity of Alzheimer’s Disease: Discovery of Fluoren-9-Amines as Selective Butyrylcholinesterase Inhibitors and N-Methyl-D-Aspartate Receptor Antagonists” (Biomolecules, 2020)
Structures can show the parent of a compound that is named as a salt. Where two headings read alike, the source gives them in different places.

Columns and labels:
[1] = system: hCMEC/D3 cell monolayer; experiment: in vitro; details: for potential of BBB permeation (in words): Papp correlated to reference drugs
Procedure: (§1) The D3 assay evaluates the ability of compounds to diffuse from the donor compartment through the D3/hCMEC cell membrane into the acceptor compartment. The D3 cells were seeded on a PET membrane (area 1.12 cm^2) with 3-µm pores of the 12-well plates with 12-mm inserts. […] The donor solution (750 µL) was added to the donor compartment (insert), and the same volume of Opti-MEM was added into the acceptor. The concentration of the drug in both compartments was measured by UV-VIS spectrophotometry in 5, 15, 30, and 60 min of incubation in triplicates. The apparent permeability coefficient (Papp) was calculated from the concentration ratios. Tightness of the D3 monolayer was conducted by the fluorescein isothiocyanate (FITC) test after each experiment. […] (1) Papp= dC/dt × Vr/A × C0 • A: area of the well/cell monolayer, • dC/dt: amount in the receiver compartment in given time, • Vr: volume of the receiver compartment, and • C0: the initial concentration of tested compounds.

[2] = in vitro; details: human
Procedure: as §1

[3] = molecular target: T1, GluN1/GluN2B receptors (Homo sapiens, UniProt Q05586+Q13224); experiment: cell-based; details: for inhibition at 10 µM: HEK293, read-out: RI (%) ± SEM GluN1/GluN2B
T1 construct: expressed in transfected cells; host or cells: HEK293
Procedure: (§2) The cells grown in a 24-well plate were put in Opti-MEM I media containing a mixture of 0.9 µL of MATra-A Reagent (IBA) and 900 ng of DNA vectors carrying the human versions of the GluN1-1a (GluN1), GluN2A, or GluN2B subunits and green fluorescent protein (GFP; all vectors were added in equal ratio). The cells were placed on a strong magnet plate for 30 min and then trypsinized; resuspended in Opti-MEM I containing 1% FBS, 20-mM MgCl2, and 3-mM kynurenic acid (to inhibit the NMDAR-induced excitotoxicity); and plated on poly-L-lysine-coated glass coverslips. The electrophysiological experiments were executed 24–48 h after transfection.
(§3) Whole-cell patch-clamp recordings were conducted at room temperature on the GFP-positive HEK293 cells using an Axopatch 200B amplifier (Molecular Devices, San Jose, CA, USA); the series resistance compensation was >80% for all cells. […] The WAS02 application system, which can reach the solution exchange time around the recorded cell of 10–20 ms, was used to apply the extracellular solution (ECS).

[4] = molecular target: T2, GluN1/GluN2A receptors (Homo sapiens, UniProt Q05586+Q12879); experiment: cell-based; details: for inhibition at 10 µM: HEK293, read-out: RI (%) ± SEM GluN1/GluN2A
T2 construct: expressed in transfected cells; host or cells: HEK293
Procedure: as §2, §3

[5] = MTT cell viability assay, CHO-K1; format: cell-based; details: Chinese hamster, CHO-K1 cells, 24 h exposure, mean of three independent measurements, read-out: IC50 ± SEM CHO-K1 cell viability
Procedure: (§4) Standard MTT assay (3-(4,5-dimethylthiazol-2-yl)-2,5-diphenyltetrazolium bromide; Sigma Aldrich, Prague, Czech Republic) was used according to the manufacturer’s protocols on the CHO-K1 (Chinese hamster ovary, ECACC, Salisbury, UK) and hCMEC/D3 (Sigma Aldrich, St. Louis, MO, USA). The cells were cultured according to recommended conditions and seeded in a density of 8000 cells per well, as described previously. […] CHO-K1 cells were exposed to serially diluted tested compounds for 24 h. Then, the medium was replaced by a fresh medium containing 0.5 mg/mL of MTT, and the cells were allowed to produce formazan for another approximately 3 h under surveillance. Thereafter, the medium with MTT was removed, and crystals of formazan were dissolved in DMSO (100 µL/well; PENTA s.r.o., Prague, Czech Republic). Cell viability was assessed spectrophotometrically by the amount of formazan produced. The absorbance was measured at 570 nm with a 650-nm reference wavelength on Synergy HT (BioTek, Winooski, VT, USA). The IC50 value (half-maximal inhibitory concentration) was calculated from the control-subtracted triplicates using nonlinear regression (four parameters) by GraphPad Prism 7.03 software (GraphPad Software Inc., San Diego, CA, USA) for the CHO-K1 cell line, and for hCMEC/D3 cells, the cell viability was expressed as the % relative to the untreated control. Final IC50 and SEM (standard error of the mean) values were obtained as a mean of three independent measurements.

[6] = molecular target: T3, hBChE (Homo sapiens, UniProt P06276); experiment: biochemical; format: biochemical
T3 construct: made in house
Procedure: The human recombinant BChE and AChE were prepared at the Department of Toxicology and Military Pharmacy (Faculty of Military Health Sciences, Hradec Kralove, Czech Republic). 5,5′-dithiobis(2-nitrobenzoic acid) (Ellman’s reagent, DTNB), phosphate buffer (PB, pH 7.4), acetylthiocholine (ATC), and butyrylthiocholine (BTC) were purchased from Sigma-Aldrich, Prague, Czech Republic. For measuring purposes, polystyrene Nunc 96-well microplates with a flat bottom shape (Thermo Fisher Scientific, Waltham, MA, USA) were utilized. All the assays were carried out in 0.1-M KH2PO4/K2HPO4 buffer, pH 7.4. Enzyme solutions were prepared at 2.0 units/mL in 2-mL aliquots. […] Tested compounds were preincubated for 5 min. The reaction was started by the immediate addition of 20 µL of the substrate. […] Each concentration was assayed in triplicate. Software GraphPad Prism 5 (San Diego, CA, USA) was used for the statistical data evaluation.

[7] = MTT cell viability test, hCMEC/D3; format: cell-based; details: human, hCMEC/D3 cells, read-out: % viable cells hCMEC/D3
Procedure: as §4, with “The IC50 value (half-maximal inhibitory concentration) was calculated from the control-subtracted triplicates using nonlinear regression (four parameters) by GraphPad Prism 7.03 software (GraphPad Software Inc., San Diego, CA, USA) for the CHO-K1 cell line, and for hCMEC/D3 cells, the cell viability was expressed as the % relative to the untreated control.” left out

[8] = final prediction from Papp correlated to reference drugs
[9] = mean of at least three experiments, read-out: IC50 ± SEM hBChE

T2 sequence (Q12879 23-1464, other chains not shown): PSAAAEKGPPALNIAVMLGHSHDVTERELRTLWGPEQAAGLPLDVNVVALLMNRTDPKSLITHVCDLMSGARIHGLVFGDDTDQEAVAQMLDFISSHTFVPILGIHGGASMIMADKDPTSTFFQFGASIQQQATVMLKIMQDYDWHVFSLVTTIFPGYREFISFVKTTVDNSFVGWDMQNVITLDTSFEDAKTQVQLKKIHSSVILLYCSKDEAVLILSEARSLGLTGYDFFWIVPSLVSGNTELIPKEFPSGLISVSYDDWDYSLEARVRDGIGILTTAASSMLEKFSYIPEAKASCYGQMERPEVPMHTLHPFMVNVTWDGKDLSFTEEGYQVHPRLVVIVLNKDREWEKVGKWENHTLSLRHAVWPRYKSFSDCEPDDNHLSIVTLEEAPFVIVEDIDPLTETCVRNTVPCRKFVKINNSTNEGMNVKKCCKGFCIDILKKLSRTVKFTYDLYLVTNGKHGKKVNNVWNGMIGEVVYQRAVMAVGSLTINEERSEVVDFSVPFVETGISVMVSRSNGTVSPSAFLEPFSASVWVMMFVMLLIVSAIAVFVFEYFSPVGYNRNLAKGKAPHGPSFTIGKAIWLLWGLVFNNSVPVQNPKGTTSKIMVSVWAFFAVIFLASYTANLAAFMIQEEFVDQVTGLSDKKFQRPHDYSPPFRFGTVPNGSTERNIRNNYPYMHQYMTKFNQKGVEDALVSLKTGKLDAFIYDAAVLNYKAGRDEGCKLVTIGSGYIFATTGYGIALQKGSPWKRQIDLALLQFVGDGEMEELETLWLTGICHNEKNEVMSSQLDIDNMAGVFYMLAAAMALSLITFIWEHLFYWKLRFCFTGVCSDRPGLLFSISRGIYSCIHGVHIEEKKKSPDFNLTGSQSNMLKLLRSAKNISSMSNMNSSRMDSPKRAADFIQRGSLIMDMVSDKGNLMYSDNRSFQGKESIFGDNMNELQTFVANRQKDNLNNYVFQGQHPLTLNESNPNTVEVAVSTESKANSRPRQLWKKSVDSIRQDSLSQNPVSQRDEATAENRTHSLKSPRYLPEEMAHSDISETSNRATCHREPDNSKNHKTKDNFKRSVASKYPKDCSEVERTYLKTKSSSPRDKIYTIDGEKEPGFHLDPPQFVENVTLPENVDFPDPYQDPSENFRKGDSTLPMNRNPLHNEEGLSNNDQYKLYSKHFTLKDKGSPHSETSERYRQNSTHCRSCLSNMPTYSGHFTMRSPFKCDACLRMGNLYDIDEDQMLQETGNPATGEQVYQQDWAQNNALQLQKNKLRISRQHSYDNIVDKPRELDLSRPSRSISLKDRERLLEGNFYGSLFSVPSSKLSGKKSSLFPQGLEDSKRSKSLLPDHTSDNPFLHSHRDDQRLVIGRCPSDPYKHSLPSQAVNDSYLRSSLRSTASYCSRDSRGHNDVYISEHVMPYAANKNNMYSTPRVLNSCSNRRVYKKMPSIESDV
T3 sequence (P06276 29-602): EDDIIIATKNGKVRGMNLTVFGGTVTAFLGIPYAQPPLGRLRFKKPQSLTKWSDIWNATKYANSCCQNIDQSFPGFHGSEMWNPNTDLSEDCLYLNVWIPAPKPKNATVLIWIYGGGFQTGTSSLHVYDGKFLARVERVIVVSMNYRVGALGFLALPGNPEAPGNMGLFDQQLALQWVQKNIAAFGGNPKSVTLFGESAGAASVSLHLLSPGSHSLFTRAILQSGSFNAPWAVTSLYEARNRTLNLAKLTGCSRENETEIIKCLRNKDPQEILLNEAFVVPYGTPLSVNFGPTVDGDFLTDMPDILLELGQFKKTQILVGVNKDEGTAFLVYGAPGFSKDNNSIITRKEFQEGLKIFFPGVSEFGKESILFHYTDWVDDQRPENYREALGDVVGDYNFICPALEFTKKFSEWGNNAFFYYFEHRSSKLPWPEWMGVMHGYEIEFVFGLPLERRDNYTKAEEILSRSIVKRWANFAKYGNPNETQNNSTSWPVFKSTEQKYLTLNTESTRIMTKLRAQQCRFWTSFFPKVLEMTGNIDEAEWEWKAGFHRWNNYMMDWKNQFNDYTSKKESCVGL
T1 sequence (Q13224 27-1484, other chains not shown): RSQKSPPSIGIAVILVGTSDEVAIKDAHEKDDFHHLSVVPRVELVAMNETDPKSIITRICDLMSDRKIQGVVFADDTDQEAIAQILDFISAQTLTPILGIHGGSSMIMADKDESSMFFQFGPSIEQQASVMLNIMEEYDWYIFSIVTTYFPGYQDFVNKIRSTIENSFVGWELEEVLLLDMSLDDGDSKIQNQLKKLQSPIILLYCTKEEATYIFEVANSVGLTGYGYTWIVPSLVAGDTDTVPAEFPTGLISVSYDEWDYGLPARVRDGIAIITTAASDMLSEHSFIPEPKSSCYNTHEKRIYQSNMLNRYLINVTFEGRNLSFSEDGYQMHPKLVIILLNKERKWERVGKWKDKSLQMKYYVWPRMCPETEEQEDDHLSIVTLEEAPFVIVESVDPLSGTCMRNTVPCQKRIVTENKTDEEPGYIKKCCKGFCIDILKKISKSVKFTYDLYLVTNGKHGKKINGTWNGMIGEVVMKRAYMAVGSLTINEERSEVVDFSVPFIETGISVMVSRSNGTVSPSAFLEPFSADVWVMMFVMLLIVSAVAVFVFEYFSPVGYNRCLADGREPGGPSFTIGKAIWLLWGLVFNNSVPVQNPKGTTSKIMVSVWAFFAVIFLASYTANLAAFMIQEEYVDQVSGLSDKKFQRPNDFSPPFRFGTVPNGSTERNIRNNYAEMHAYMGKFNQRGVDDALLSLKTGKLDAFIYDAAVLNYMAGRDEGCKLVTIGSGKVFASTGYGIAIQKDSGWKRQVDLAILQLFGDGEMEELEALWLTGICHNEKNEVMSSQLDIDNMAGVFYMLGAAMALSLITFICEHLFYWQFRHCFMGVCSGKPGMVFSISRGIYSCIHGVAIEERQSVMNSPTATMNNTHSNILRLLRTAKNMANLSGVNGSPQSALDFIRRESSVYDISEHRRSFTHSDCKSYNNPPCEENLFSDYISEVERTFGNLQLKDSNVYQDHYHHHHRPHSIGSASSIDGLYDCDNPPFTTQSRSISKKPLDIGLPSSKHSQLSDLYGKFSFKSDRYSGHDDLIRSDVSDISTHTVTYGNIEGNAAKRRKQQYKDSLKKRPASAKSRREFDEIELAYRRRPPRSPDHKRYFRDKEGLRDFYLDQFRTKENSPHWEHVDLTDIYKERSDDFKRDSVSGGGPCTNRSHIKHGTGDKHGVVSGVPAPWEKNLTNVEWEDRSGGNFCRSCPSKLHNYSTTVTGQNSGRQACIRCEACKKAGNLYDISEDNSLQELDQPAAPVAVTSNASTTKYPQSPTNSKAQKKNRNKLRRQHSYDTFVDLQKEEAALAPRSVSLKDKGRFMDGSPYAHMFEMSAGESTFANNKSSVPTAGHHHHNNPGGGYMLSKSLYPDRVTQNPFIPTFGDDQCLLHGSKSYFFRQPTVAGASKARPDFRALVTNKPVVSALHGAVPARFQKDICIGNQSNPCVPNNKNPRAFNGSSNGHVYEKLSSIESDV

| SMILES | Papp [2] [×10⁻⁶ cm/s] | inhibition at 10 µM [3] [%] | inhibition at 10 µM [4] [%] | IC50 at 24 h [5] [µM] | IC50 [6, 9] [µM] | also measured |
| --- | --- | --- | --- | --- | --- | --- |
| Cc1cc(=O)n(-c2ccccc2)n1C [Antipyrine, reference compound] | 17.2 ± 1.82 | – | – | – | – | CNS (+/−) [1, 8]: CNS + |
| CC(C)NC1c2ccccc2-c2ccccc21 [Compound 3a, N-Propan-2-yl-9H-fluoren-9-amine hydrochloride] | – | 25 ± 1.82 | 33.3 ± 1.66 | 387 ± 32 | – | – |
| CNC1c2ccccc2-c2ccccc21 [Compound 3b, N-Methyl-9H-fluoren-9-amine hydrochloride] | – | 18 ± 0.78 | 36.2 ± 2.16 | 427 ± 12 | 8.91 ± 0.31 | – |
| c1ccc2c(c1)-c1ccccc1C2NC1CC1 [Compound 3d, N-Cyclopropyl-9H-fluoren-9-amine hydrochloride] | – | 14.3 ± 0.35 | 26.6 ± 0.85 | 353 ± 32 | 6.42 ± 0.22 | – |
| Cl.c1ccc2c(c1)-c1ccccc1C2NC1CCC1 [Compound 3e, N-Cyclobutyl-9H-fluoren-9-amine hydrochloride] | 13.5 ± 1.54 | 44.8 ± 3.43 | 52.3 ± 4.18 | 192 ± 3 | 2.03 ± 0.08 | h 40 mV GluN1/GluN2B (Hill coefficient) ([3]; 40 mV): 1.10 ± 0.08; IC50 ([3]; 40 mV, read-out: IC50 40 mV GluN1/GluN2B): 156 ± 14.9 µM; h −60 mV GluN1/GluN2B (Hill coefficient) ([3]; −60 mV): 1.17 ± 0.05; IC50 ([3]; −60 mV, read-out: IC50 −60 mV GluN1/GluN2B): 15.3 ± 2.38 µM; h 40 mV GluN1/GluN2A (Hill coefficient) ([4]; 40 mV): 1.28 ± 0.12; IC50 ([4]; 40 mV, read-out: IC50 40 mV GluN1/GluN2A): 82.6 ± 14.2 µM; h −60 mV GluN1/GluN2A (Hill coefficient) ([4]; −60 mV): 1.07 ± 0.05; IC50 ([4]; −60 mV, read-out: IC50 −60 mV GluN1/GluN2A): 8.85 ± 1.21 µM; potential of BBB permeation (in words) [1]: low potential to passively pass the BBB; CNS (+/−) [1, 8]: CNS −; viability at 50 µM [7]: 92.8%; viability at 100 µM [7]: 92.3% |
| c1ccc2c(c1)-c1ccccc1C2N1CCCCC1 [Compound 3f, 1-(9H-fluoren-9-yl)piperidine hydrochloride] | – | 19.4 ± 2.65 | 33 ± 1.96 | 872 ± 10 | 2.13 ± 0.06 | – |
| COCCNC1c2ccccc2-c2ccccc21 [Compound 3g, N-(2-methoxyethyl)-9H-fluoren-9-amine hydrochloride] | – | 6.76 ± 1 | 18.7 ± 1.98 | 738 ± 1 | 2.56 ± 0.11 | – |
| CCNC1c2ccccc2-c2ccccc21 [Compound 3h, N-Ethyl-9H-fluoren-9-amine hydrochloride] | – | 17.5 ± 2.46 | 26.9 ± 2.14 | 417 ± 16 | 6.58 ± 0.19 | – |
| CCN(CC)C1c2ccccc2-c2ccccc21 [Compound 3i, N,N-Diethyl-9H-fluoren-9-amine hydrochloride] | – | 20.1 ± 2.82 | 25.7 ± 1.92 | 266 ± 3 | 5.38 ± 0.11 | – |
| CN1CCN(C2c3ccccc3-c3ccccc32)CC1 [Compound 3j, 1-(9H-fluorene-9-yl)-4-methylpiperazine dihydrochloride] | – | 21.9 ± 2.1 | 29.1 ± 2.85 | 259 ± 12 | – | IC50 [6]: 23.5 ± 0.8 µM |
| CCN1CCN(C2c3ccccc3-c3ccccc32)CC1 [Compound 3k, 1-(9H-fluorene-9-yl)-4-ethylpiperazine dihydrochloride] | – | 19.1 ± 1.48 | 32.1 ± 1.01 | 239 ± 35 | 12.8 ± 0.3 | – |
| c1ccc2c(c1)-c1ccccc1C2N1CCOCC1 [Compound 3l, 4-(9H-fluorene-9-yl)morpholine hydrochloride] | – | 11.6 ± 0.52 | 14.9 ± 1.76 | > 800 | 54.7 ± 1.9 | – |
| CC(C)CNC1c2ccccc2-c2ccccc21.Cl [Compound 3n, N-(2-methylpropyl)-9H-fluoren-9-amine hydrochloride] | 14.6 ± 1.88 | 49.7 ± 1.72 | 37.9 ± 2.43 | 236 ± 24 | – | potential of BBB permeation (in words) [1]: low potential to passively pass the BBB; CNS (+/−) [1, 8]: CNS −; viability at 50 µM [7]: 98.2%; viability at 100 µM [7]: 92.7% |
| c1ccc2c(c1)-c1ccccc1C2N1CCCC1 [Compound 3o, 1-(9H-fluoren-9-yl)pyrrolidine hydrochloride] | – | 32.4 ± 2.99 | 27.8 ± 1.74 | 413 ± 15 | 1.8 ± 0.06 | – |
| CC12CC3CC(C)(C1)CC(N)(C3)C2 [Memantine, memantine, reference compound] | – | – | – | – | – | h 40 mV GluN1/GluN2B (Hill coefficient) [3]: 0.84 ± 0.04; h −60 mV GluN1/GluN2B (Hill coefficient) [3]: 1.04 ± 0.03; h 40 mV GluN1/GluN2A (Hill coefficient) [4]: 1.16 ± 0.05; h −60 mV GluN1/GluN2A (Hill coefficient) [4]: 1.04 ± 0.06 |
| O/N=C/c1cc[n+](COC[n+]2ccc(/C=N/O)cc2)cc1 [Obidoxime, reference compound] | 14.3 ± 0.52 | – | – | – | – | CNS (+/−) [1, 8]: CNS − |
| CC(C)NCC(O)COc1cccc2ccccc12 (centres unmarked) [Propranolol, reference compound] | 23.1 ± 2.06 | – | – | – | – | CNS (+/−) [1, 8]: CNS + |
| CCN(C)C(=O)Oc1cccc([C@H](C)N(C)C)c1 [Rivastigmine, reference compound] | 28.6 ± 4.64 | – | – | – | – | CNS (+/−) [1]: CNS + |
